SMILES strings stand for the structures. ≈ marks a conversion by molar mass, not a printed value. Where “and” joins values, the source holds several entries; their conditions need not be identical. Identical values can stand only once.

These results are taken from patent US20080051463A1, “ANTHRACENE COMPOUNDS AND THEIR USE FOR TREATING BENIGN AND MALIGNANT TUMOR DISORDERS” (AETERNA ZENTARIS GmbH, priority 2006, published 2008).

The target of one test is T1, Eg513-437 (Homo sapiens, UniProt P52732).
T1 construct: read as Eg5 residues 13-437
T1 sequence (P52732 1-1056): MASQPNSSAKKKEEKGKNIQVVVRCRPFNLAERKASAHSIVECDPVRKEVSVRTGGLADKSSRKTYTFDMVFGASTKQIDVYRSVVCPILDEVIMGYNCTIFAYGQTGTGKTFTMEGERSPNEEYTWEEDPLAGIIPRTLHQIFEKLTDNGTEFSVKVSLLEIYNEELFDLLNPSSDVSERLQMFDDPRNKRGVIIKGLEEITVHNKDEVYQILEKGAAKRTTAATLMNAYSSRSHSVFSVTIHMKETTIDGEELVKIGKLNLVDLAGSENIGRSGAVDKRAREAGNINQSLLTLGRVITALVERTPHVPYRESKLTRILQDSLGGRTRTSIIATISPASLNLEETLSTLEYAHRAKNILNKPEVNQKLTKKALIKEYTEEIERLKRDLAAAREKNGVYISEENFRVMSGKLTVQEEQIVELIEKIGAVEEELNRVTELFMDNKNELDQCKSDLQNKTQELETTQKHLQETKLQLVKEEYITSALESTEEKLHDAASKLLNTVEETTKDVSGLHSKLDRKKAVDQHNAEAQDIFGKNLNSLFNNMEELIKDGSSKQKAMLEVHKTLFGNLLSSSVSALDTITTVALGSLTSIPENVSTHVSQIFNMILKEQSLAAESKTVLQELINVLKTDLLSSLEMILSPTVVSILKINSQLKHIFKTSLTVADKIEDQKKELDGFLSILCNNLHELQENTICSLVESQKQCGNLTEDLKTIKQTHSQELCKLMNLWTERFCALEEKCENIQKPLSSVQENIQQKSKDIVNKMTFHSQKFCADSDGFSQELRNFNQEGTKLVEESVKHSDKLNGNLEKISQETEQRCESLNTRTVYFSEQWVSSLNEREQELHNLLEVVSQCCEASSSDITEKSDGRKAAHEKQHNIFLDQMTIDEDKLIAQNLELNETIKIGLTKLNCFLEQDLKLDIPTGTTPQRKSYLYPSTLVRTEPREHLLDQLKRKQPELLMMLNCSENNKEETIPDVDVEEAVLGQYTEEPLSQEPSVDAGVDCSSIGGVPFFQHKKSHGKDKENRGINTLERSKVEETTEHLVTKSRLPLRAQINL
Kind of test: Inhibition of kinesin Eg5 activity, recombinant Eg513-437. As to conditions: recombinant Eg513-437 (Table 4). The class given is biochemical. An excerpt: (§1) In an in vitro test, compound 1 was examined for inhibition of Eg5 activity [Kodama, T. et al. J. Biochem. 99: 1465-1472 (1986)].
(§2) Here, the recombinant kinesins Eg513-437 (Table 3) and Eg51-406 (Table 4) were used.
(§3) Tables 4 and 5 state the EC50 values of Eg5 inhibition for the compound 1 according to the invention.

Test [1] has as its system human cervical carcinoma cell line KB/HeLa. In words: Proliferation test (cellular dehydrogenase activity), KB/HeLa. The class given is cell-based. The text has this:
(§4) The antiproliferative activity of the compounds 1, 2, 4, 6, 7, 9, 10, 11, 12 and 13 according to the invention was investigated in a proliferation test performed on established tumor cell lines (D. A. Scuderio et al. Cancer Res. 1988, 48: 4827-4833).
(§5) The test used determines the cellular dehydrogenase activity and makes it possible to determine cell viability and determine cell number indirectly.
(§6) The cell lines used are the human cervical carcinoma cell line KB/HeLa (ATCC CCL17), the ovarian adenocarcinoma cell line SKOV-3 (ATCC HTB77), the human glioblastoma cell line SF-268 (NCI-503138) and the lung carcinoma cell line NCI-H460 (NCI-503473). In addition, an RKOp27 cell system was used for investigating the cell cycle-specific effect of the substance (M. Schmidt et al. Oncogene 2000, 19(20): 2423-9).

The target of test [2] is T2, complete recombinant KIF5A (Homo sapiens, UniProt Q12840).
T2 construct: Here, use was made of complete recombinant KIF5A
T2 sequence (Q12840 1-1032): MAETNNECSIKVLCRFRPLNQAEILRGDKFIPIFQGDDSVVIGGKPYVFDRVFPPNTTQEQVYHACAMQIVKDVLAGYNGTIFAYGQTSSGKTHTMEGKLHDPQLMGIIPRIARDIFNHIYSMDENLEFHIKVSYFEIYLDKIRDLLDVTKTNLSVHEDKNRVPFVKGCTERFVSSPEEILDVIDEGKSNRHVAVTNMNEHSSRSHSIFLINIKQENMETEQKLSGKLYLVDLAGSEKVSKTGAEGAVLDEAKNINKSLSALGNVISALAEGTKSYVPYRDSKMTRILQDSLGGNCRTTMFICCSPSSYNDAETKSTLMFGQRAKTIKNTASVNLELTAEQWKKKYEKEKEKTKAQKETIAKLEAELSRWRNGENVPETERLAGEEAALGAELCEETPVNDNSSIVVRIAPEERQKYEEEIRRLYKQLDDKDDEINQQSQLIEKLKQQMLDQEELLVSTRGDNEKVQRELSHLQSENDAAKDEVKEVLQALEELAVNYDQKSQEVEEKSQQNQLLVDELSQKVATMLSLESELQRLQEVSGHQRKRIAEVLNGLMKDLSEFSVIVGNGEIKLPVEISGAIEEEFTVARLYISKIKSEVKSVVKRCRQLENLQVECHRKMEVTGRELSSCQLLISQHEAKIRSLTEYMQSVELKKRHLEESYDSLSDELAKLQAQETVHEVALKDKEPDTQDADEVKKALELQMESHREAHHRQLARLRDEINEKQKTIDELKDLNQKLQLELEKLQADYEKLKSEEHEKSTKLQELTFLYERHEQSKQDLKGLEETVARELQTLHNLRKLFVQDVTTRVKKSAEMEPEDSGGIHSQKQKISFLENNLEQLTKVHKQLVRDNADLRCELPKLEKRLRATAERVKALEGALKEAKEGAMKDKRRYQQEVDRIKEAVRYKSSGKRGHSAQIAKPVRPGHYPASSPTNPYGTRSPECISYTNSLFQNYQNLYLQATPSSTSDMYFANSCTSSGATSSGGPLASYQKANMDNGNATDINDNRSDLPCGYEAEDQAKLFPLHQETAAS
In words: Inhibition of KIF5A ATPase activity (end-point assay). As to conditions: microtubulus-activatable ATPase. Format: biochemical. How it is done: In an in vitro test, compound 1 was examined for inhibition of KIF5A ATPase activity. Here, use was made of complete recombinant KIF5A (Niclas J, Navone F, Hom-Booher N, Vale R D Neuron 1994, 12:1059-1072).
The activity of the microtubulus-activatable ATPase was determined by end-point assay. For tubulin isolation and preparation of the microtubuli see citations in Example II) b).
Table 6 states the EC50 value of the ATPase inhibition of KIF5A by compound 1 according to the invention.

Test [3] concerns ovarian adenocarcinoma cell line SKOV-3. Kind of test: Proliferation test (cellular dehydrogenase activity), SK-OV-3. The class given is cell-based. The following applies: Homo sapiens.
Source text: as §4, §5, §6

Another test deals with T3, Eg51-406 (Homo sapiens, UniProt P52732).
T3 construct: read as Eg5 residues 1-406
T3 sequence (P52732 1-1056): T1 sequence (P52732 1-1056)
In words: Inhibition of kinesin Eg5 activity, recombinant Eg51-406. Format: biochemical. As to conditions: recombinant Eg51-406 (Table 5).
Source text: as §1, §2, §3

As to `O=C(C=C1c2ccccc2C(=O)c2ccccc21)c1ccc(O)c(O)c1` [Compound 1, 10-[2-(3,4-dihydroxy-phenyl)-2-oxo-ethylidene]-10H-anthracen-9-one], the EC50 (usually the midpoint of the concentration-response curve) at Eg513-437 is 6.92 µM and 7.24 µM and 5.46 µM and 5.9 µM; in test [1] it was 0.091 µg/mL (≈ 0.266 µM); in test [2] it was 61.9 µM; in test [3], 0.053 µg/mL (≈ 0.155 µM); at Eg51-406 it was 37.1 µM.
